The record followed here is US6638923B2, “Estra-1,3,5(10),16-tetraene derivatives” (Kyowa Hakko Kogyo Co., Ltd., priority 1999, dated 2003).

For orientation: inhibition means the share of the control response that was lost under treatment.

This assay deals with T1, recombinant human estrone sulfatase (Homo sapiens, UniProt P08842).
T1 construct: made in house; host or cells: CHO (Chinese hamster ovary) cells
T1 sequence (P08842 22-583): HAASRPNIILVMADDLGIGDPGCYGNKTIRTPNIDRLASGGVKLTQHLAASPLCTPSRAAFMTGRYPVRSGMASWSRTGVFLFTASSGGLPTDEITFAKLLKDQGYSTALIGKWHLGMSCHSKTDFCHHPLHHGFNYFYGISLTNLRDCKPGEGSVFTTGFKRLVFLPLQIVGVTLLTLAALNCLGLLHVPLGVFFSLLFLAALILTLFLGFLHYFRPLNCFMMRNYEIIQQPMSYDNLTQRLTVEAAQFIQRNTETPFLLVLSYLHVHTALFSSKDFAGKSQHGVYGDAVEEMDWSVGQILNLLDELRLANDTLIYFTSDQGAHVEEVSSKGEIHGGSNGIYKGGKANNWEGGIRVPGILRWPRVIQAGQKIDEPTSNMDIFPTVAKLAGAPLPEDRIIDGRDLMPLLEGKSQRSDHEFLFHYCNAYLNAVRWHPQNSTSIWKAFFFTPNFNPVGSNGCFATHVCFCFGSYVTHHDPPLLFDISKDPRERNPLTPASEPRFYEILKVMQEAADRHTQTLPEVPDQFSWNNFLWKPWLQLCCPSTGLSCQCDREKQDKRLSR
As to the kind of experiment: Estrone sulfatase (steroid sulfatase) inhibition test. It counts as biochemical. The conditions noted are these: test compound 1 μM; [6,7-3H] estrone sulfate 3.3 nmol/L; pH 7; 1 hour at 37° C.; read-out: Inhibitory activity against estrone sulfatase, Inhibition % (1 μM). As to the method: Estrone Sulfatase (Steroid Sulfatase) Inhibition Test:
[6,7-^3H] Estrone sulfate (final concentration, 3.3 nmol/L; 300,000 dpm/tube), recombinant human estrone sulfatase (33 ng/tube) and an estra-1,3,5(10),16-tetraene derivative (final concentration, 1 μmol/L) were added to a phosphate buffer (pH 7; final volume, 0.15 mL) containing 0.25 mol/L of sucrose and 0.04 mol/L of nicotinamide, and allowed to enzymatically react for 1 hour at 37° C. The recombinant human estrone sulfatase was obtained by transforming a human estrone sulfatase gene into CHO (Chinese hamster ovary) cells and expressing it in the cells, and used after partial purification. After completion of the enzyme reaction, the reaction solution was mixed with toluene (0.5 mL), followed by stirring, and the mixture was centrifuged for 5 minutes at 9,000 rpm. Thereafter, the toluene extraction layer was separated and the radioactivity of the resulting [^3H]-estrone was measured with a liquid scintillation counter. The measurement was carried out by duplication, and the fluctuation within the assay was 10% or less. An enzyme reaction in the absence of the test compound was carried out at the same time. The activity of the test compound to inhibit estrone sulfatase was calculated by the following formula.
Inhibitory activity against estrone sulfatase (%)=100−(100×(A/B)) […]

With `C[C@]12CC[C@@H]3c4ccc(O)cc4CC[C@H]3[C@@H]1CC=C2C(=O)O` [Compound 1, 3-hydroxyestra-1,3,5(10), 16-tetraene-17-carboxylic acid], the inhibition at 1 µM amounted to 48%.
